From ChEMBL document CHEMBL1158305, “Bastadin 20 and bastadin O-sulfate esters from Ianthella basta: novel modulators of the Ry1R FKBP12 receptor complex” (J Nat Prod, 1996)
pEC50: −log10 of the molar value.

Biological target: Ryanodine receptor 1 (Oryctolagus cuniculus, UniProt P11716)
Assay: Displacement of [3H]ryanodine from Ry1R/FKBP12 receptor complex in rabbit sarcoplasmic reticulum

Chain of Ryanodine receptor 1 (P11716 whole entry): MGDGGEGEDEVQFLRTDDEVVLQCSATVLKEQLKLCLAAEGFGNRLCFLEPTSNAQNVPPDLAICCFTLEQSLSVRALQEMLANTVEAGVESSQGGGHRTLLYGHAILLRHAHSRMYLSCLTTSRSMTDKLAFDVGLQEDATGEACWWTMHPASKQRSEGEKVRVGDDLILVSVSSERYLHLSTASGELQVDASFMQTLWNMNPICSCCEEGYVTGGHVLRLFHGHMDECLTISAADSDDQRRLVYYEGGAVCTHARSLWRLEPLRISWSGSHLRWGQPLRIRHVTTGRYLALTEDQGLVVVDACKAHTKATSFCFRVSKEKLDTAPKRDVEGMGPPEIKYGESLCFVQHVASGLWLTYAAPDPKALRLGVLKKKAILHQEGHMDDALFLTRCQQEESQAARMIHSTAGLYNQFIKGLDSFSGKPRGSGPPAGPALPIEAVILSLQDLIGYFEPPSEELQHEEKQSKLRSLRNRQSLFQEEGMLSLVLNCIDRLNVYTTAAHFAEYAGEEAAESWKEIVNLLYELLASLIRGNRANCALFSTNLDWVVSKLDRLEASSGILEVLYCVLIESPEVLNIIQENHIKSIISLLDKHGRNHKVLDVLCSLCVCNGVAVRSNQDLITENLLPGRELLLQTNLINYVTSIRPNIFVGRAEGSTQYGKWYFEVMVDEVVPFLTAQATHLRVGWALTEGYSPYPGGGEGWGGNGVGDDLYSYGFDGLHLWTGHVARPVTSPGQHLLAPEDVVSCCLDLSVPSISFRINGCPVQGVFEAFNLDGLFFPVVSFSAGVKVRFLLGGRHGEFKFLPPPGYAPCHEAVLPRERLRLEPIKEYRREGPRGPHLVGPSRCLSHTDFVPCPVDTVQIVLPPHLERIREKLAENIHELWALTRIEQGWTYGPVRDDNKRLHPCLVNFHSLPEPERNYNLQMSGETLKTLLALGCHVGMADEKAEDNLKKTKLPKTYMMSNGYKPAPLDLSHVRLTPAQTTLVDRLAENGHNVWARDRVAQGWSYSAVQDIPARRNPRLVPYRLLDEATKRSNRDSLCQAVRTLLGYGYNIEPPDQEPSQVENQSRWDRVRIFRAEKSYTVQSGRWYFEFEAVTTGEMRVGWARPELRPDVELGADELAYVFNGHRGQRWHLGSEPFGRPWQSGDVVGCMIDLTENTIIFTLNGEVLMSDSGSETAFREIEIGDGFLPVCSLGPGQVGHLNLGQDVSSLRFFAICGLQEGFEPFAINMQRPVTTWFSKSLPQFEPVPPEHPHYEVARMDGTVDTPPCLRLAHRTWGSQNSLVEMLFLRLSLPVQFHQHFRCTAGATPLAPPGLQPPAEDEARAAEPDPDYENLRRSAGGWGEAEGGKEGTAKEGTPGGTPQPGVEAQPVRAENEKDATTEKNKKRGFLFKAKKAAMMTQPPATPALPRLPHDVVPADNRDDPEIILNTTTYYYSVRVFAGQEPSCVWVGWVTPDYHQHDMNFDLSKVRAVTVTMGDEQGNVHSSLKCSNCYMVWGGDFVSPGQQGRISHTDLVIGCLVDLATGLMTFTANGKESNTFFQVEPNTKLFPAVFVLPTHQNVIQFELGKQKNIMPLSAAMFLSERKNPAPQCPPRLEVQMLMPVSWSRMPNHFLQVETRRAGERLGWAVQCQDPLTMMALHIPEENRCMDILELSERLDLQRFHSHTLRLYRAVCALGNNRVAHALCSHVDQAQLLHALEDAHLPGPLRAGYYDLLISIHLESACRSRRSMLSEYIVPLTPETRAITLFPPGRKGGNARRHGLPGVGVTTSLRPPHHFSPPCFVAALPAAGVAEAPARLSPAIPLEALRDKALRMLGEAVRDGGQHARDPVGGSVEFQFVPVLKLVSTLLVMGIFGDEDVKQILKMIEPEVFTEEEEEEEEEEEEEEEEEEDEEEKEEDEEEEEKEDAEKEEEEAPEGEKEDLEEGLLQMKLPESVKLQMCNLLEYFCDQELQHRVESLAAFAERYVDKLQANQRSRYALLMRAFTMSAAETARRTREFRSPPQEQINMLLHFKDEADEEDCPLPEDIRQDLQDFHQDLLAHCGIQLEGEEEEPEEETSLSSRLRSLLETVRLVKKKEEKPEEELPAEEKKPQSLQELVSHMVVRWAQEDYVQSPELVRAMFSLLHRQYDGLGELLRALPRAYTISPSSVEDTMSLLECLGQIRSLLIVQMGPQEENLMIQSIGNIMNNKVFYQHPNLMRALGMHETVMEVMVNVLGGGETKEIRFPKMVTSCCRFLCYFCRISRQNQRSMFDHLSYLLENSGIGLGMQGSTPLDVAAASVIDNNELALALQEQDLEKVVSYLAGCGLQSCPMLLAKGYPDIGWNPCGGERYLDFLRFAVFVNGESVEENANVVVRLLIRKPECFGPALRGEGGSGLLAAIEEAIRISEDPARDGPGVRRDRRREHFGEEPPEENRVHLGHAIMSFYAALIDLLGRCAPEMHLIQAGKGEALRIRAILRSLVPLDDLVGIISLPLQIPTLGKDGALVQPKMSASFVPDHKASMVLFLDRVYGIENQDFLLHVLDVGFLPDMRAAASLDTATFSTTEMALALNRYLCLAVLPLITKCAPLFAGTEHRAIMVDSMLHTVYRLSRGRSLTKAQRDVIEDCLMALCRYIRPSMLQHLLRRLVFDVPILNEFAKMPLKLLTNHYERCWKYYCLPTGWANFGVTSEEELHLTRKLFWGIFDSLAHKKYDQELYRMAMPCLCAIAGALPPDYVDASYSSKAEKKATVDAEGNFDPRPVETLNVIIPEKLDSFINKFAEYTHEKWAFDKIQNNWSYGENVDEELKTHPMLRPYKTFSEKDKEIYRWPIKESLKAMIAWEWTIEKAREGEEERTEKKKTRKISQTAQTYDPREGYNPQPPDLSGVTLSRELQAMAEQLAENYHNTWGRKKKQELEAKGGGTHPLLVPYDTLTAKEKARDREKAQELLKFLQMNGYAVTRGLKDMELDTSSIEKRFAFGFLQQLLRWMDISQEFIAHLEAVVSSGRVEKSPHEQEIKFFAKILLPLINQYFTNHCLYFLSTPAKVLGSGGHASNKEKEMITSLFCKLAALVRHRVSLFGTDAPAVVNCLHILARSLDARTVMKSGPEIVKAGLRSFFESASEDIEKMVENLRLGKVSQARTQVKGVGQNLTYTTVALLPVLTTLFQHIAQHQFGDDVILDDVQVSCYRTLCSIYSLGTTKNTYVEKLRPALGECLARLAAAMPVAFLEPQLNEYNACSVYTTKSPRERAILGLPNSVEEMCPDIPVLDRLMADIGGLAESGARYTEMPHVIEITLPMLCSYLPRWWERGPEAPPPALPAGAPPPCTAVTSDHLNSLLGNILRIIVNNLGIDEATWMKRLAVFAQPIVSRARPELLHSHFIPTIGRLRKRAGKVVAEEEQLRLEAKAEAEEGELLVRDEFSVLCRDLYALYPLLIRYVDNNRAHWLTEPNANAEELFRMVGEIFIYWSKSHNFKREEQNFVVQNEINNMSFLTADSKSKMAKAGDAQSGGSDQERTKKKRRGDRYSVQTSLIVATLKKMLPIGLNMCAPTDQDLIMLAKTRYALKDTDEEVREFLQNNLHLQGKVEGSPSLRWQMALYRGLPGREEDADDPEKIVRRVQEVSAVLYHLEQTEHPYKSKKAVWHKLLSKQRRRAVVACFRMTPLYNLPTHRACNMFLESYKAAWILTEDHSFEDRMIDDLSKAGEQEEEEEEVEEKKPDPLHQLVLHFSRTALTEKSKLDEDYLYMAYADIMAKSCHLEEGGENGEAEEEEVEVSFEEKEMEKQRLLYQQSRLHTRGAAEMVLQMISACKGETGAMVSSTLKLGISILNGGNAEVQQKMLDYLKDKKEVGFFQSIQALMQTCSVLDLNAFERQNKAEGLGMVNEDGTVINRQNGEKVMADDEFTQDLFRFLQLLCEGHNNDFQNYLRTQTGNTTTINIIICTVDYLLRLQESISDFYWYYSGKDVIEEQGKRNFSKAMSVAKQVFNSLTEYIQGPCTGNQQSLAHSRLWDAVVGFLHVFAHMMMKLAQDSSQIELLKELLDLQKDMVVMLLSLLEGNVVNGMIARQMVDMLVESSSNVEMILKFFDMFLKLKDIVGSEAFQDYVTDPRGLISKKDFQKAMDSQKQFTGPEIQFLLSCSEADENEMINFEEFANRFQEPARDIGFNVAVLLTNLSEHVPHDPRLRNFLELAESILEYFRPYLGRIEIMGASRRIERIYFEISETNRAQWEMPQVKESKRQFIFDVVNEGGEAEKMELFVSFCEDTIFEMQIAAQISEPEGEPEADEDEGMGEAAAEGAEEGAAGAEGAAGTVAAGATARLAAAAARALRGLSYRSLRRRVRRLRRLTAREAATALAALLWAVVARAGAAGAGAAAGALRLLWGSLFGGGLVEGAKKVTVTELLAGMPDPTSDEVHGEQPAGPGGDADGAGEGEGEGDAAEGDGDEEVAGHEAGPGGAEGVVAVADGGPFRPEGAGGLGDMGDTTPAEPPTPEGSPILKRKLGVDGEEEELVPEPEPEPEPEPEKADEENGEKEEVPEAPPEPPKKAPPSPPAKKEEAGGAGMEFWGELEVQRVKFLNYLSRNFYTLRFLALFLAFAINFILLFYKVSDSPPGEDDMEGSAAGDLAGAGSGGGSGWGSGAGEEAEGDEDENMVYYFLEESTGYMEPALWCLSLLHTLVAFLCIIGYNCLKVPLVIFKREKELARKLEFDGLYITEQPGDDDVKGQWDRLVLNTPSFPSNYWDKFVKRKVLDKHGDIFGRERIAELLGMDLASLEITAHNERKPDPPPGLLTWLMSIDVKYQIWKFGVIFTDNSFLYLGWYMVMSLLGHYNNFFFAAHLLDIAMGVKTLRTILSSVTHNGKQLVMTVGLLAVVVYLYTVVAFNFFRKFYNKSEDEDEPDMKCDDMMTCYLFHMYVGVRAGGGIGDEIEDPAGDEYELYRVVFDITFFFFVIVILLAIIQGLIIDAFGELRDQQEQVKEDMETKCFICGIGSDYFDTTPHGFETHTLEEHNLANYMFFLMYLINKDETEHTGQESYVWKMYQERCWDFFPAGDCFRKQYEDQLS

| pEC50 | Structure (SMILES) |
| --- | --- |
| 4.87 | O=C1N/C=C/c2ccc(c(Br)c2)Oc2cc(cc(Br)c2OS(=O)(=O)O)CCNC(=O)/C(=N/O)Cc2ccc(c(Br)c2)Oc2cc(cc(Br)c2OS(=O)(=O)O)C/C1=N\O |
| < 4.00 | O=C1NCCc2ccc(c(Br)c2)Oc2cc(cc(Br)c2O)CCNC(=O)/C(=N/O)Cc2cc(Br)c(O)c(c2)Oc2c(Br)cc(cc2Br)C/C1=N\O [BASTADIN 19] |
